This passage reports mass density, Normal boiling temperature and refractive index results from the NIST ThermoML archive (doi:10.1016/j.fluid.2014.01.022).

As a reminder, the mass density is the mass of a sample divided by its volume. For orientation: refractive index means the speed of light in vacuum divided by its phase velocity in the sample.

Numbers after ± are expanded uncertainties.

The conditions of data set [1]: Liquid; for mass density: 298.15 K, 101.33 kPa, Vibrating tube method; for Normal boiling temperature: Ebulliometric method (Recirculating still).
Data set [2] in a line: refractive index (Na D-line) (dimensionless). The note with it: 298.15 K; 101.3 kPa; Liquid; Standard Abbe refractometry.

On to `COCC(C)O` (stereo not given) [1-methoxy-2-propanol], for which, in data set [1], the mass density amounted to 916.5 ± 0.2 kg/m3 and the Normal boiling temperature was 120.2 ± 1 °C. The refractive index in data set [2] was 1.4024 ± 0.0007.
Regarding `COCC(C)OC(C)=O` (stereo not given) [1-methoxy-2-propyl acetate], in data set [1], the mass density is reported as 963 ± 0.2 kg/m3 and the Normal boiling temperature was found to be 146 ± 1 °C. For the same molecule, the refractive index in data set [2] is given as 1.4 ± 0.0007.
With `COC(C)=O` [methyl ethanoate], in data set [1], the mass density was 927.5 ± 0.2 kg/m3 and the Normal boiling temperature was 57.2 ± 1 °C. For the same molecule, in data set [2], the refractive index is 1.3596 ± 0.0007.
For `CC(C)O` [propan-2-ol], in that order: 781.4 ± 0.2 kg/m3, 82.5 ± 1 °C and 1.375 ± 0.0007.
In the same order, the values of `CO` [methanol] are 786.9 ± 0.2 kg/m3, 64.6 ± 1 °C and 1.3269 ± 0.0007.
